For test [1], the target named is B. fragilis CfiA metallo-β-lactamase (Bacteroides fragilis, UniProt P25910). The test can be described thus: I50 screen, nitrocefin reporter substrate, CfiA metallo-β-lactamase. It is filed as biochemical. Particulars: 25 mM PIPES pH 7, 37° C., nitrocefin 91 μM, 5 minute preincubation, Zn2+ 100 μM; enumerated Examples; read-out: I50 values against B. fragilis CfiA metallo-β-lactamase. How it is done:
The inhibitory activity of the compounds of the invention was measured in 25 mM PIPES pH 7 buffer at 10 concentrations (1000, 333, 111, 37, 12.3, 4.1, 1.4, 0.46, 0.15 and 0.05 μM) at 37° C. using nitrocefin (91 μM final concentration) as the reporter substrate. The assays were performed with a 5 minute preincubation of enzyme and inhibitor and were conducted in the presence of added zinc sulphate (Zn^2+ 100 μM, final concentration). the methodology is described in detail in the following references: Payne et al (1991), J. Antimicrob. Chemother., 28:255; Payne et al (1994), Antimicrob. Agents and Chemother., 38:767.

Test [2] relates to Bacteroides fragis 262 strain, which produces CfiA metallo-β-lactamase. The test can be described thus: Antibacterial activity (MIC) in combination with meropenem. The format is cell-based, Bacteroides fragilis. The text has this: Antibacterial activity of compounds of the invention in combination with the carbapenem antibiotic, meropenem, against the Bacteroides fragis 262 strain, which produces CfiA metallo-β-lactamase:
[MIC=minimum inhibitory concentration (μg/ml)]

[3] abbreviates: read-out: MIC (μg/ml) of compound alone.

Like-named read-outs stand apart in the source and are kept apart here.

B. fragilis CfiA metallo-β-lactamase, sequence (P25910 19-249): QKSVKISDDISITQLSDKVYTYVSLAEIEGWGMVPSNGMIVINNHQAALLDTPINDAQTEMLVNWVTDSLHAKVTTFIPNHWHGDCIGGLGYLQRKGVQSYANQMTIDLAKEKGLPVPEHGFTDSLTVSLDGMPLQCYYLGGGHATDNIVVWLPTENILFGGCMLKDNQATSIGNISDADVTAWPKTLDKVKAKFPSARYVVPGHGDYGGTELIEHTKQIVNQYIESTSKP

As for `O=C(N[C@@H](C(=O)O)c1cccc([N+](=O)[O-])c1)C(CS)Cc1ccccc1` (stereo partly drawn) [Example 18, N-[2'-Benzyl-3'-mercaptopropionyl]-3-nitro-D-phenylglycine], the IC50 in test [1] is below 1 µM. The same measure, in the same setting: then `CC(S)C(CCc1ccccc1)C(=O)N[C@@H](C(=O)O)c1ccccc1` (stereo partly drawn) [Example 44, N-[2'-(1"-Mercaptoethyl)-4'-phenylbutanoyl]-D-phenylglycine], with below 1 µM. For the compound `O=C(NC(C(=O)O)c1cc2ccccc2s1)C(CS)Cc1ccccc1` (stereo not drawn) [Example 31, N-[2'-Benzyl-3'-mercaptopropionyl]-2-(2"-benzothienyl)glycine], the MIC in test [2] (setting [3]) is above 128 µg/mL. In addition, in test [1], the IC50 was below 1 µM. For `O=C(N[C@@H](C(=O)O)c1ccccc1)[C@@H](CS)CCc1ccccc1` [37f), N-[(S)-2'-Mercaptomethyl-4'-phenylbutanoyl]-D-phenylglycine], in test [2] (setting [3]), the MIC is above 128 µg/mL. Besides, the IC50 in test [1] is below 1 µM. Taken in the same sequence, the figures for `O=C(N[C@@H](C(=O)O)c1ccccc1)C(CS)Cc1ccccc1` (stereo partly drawn) [Example 9k), N-[2'-Benzyl-3'-mercaptopropionyl]-D-phenylglycine] were above 128 µg/mL and below 1 µM. As to `O=C(N[C@@H](C(=O)O)c1ccccc1)[C@@H](CS)Cc1ccccc1` [9i), [2'S]-N-[2'-Benzyl-3'-mercaptopropionyl]-D-phenylglycine], the IC50 in test [1] is below 1 µM.

For `CC(S)C(Cc1ccccc1)C(=O)N[C@@H](C(=O)O)c1ccccc1` (single isomer, unassigned) [Example 50 (Isomer C), N-[2'-Benzyl-3'-mercaptobutanoyl]-D-phenylglycine], the IC50 in test [1] was below 1 µM. Regarding `O=C(N[C@H](Cc1c[nH]c2ccccc12)C(=O)O)C(CS)Cc1ccccc1` (stereo partly drawn) [5e), N-[2'-Benzyl-3'-mercaptopropionyl]-D-tryptophan], the IC50 in test [1] was below 1 µM. Same read-out and setting: then `O=C(N[C@@H](C(=O)O)c1ccccc1)C(CS)CCCCc1ccccc1` (stereo partly drawn) [Example 39, N-[2'-Mercaptomethyl-6'-phenylhexanoyl]-D-phenylglycine], with below 1 µM.

As for `C[C@@H](O)[C@H]1C(=O)N2C(C(=O)O)=C(S[C@@H]3CN[C@H](C(=O)N(C)C)C3)[C@H](C)[C@H]12` [meropenem, reference compound], the MIC in test [2] (read-out: MIC (μg/ml) of meropenem alone) was above 128 µg/mL. With `O=C(N[C@@H](C(=O)O)c1ccc(O)c(O)c1)C(CS)Cc1ccccc1` (stereo partly drawn) [Example 15, N-[2'-Benzyl-3'-mercaptopropionyl]-3,4-dihydroxy-D-phenylglycine], in test [1], the IC50 was below 1 µM. Still for that read-out and setting: in the case of `O=C(N[C@@H](C(=O)O)c1ccccc1)C(CS)CCc1ccc2nc(C(F)(F)F)ccc2c1` (single isomer, unassigned) [47 (Isomer B), N-[2'-(Mercaptomethyl)-4'-(2"-trifluoromethylquinolin-6"-yl)butanoyl]-D-phenylglycine] it was below 1 µM. On the same count and under the same terms, then `CC(S)C(Cc1ccccc1)C(=O)N[C@@H](C(=O)O)c1ccccc1` (single isomer, unassigned) [Example 50 (Isomer B), N-[2'-Benzyl-3'-mercaptobutanoyl]-D-phenylglycine], with below 1 µM; and `O=C(O)c1ccc(CCC(CS)C(=O)N[C@@H](C(=O)O)c2ccccc2)cc1` (single isomer, unassigned) [46 (Isomer A), N-[2'-(Mercaptomethyl)-4'-(4"-hydroxycarbonyl)phenylbutanoyl]-D-phenylglycine], with below 1 µM.

For the compound `O=C(NC(C(=O)O)c1ccc(O)c([N+](=O)[O-])c1)C(CS)Cc1ccccc1` (stereo not drawn) [Example 14, N-[2'-Benzyl-3'-mercaptopropionyl]-4-hydroxy-3-nitrophenylglycine], the MIC in test [2] (setting [3]) is above 128 µg/mL. For the same compound, the IC50 in test [1] is below 1 µM.

Consider `O=C(N[C@@H](C(=O)O)c1ccccc1)C(CS)CCc1ccc(OC(F)F)cc1` (stereo partly drawn) [Example 55, N-[2'-Mercaptomethyl-4'-(4"-difluoromethoxphenyl)butanoyl)-D-phenylglycine], for which, in test [2] (setting [3]), the MIC is above 128 µg/mL. For the same compound, the IC50 in test [1] is below 1 µM. Taken in the same sequence, the figures for `O=C(NC(C(=O)O)c1ccoc1)C(CS)Cc1ccccc1` (stereo not drawn) [Example 32, N-[2'-Benzyl-3'-mercaptopropionyl]-2-(3"-furanyl)glycine] were above 128 µg/mL and below 1 µM. For `O=C(NC(C(=O)O)c1ccsc1)C(CS)Cc1ccccc1` (stereo not drawn) [Example 43, N-[2'-Benzyl-3'-mercaptopropionyl]-2-(3"-thienyl)glycine], in that order: above 128 µg/mL and below 1 µM. Taken in the same sequence, the figures for `O=C(N[C@@H](C(=O)O)c1ccc(O)cc1)C(CS)Cc1ccccc1` (stereo partly drawn) [Example 12, N-[2'-Benzyl-3'-mercaptopropionyl]-4-hydroxy-D-phenylglycine] were above 128 µg/mL and below 1 µM. With `O=C(NC(C(=O)O)c1cccs1)C(CS)Cc1ccccc1` (stereo not drawn) [Example 20, N-[2'-Benzyl-3'-mercaptopropionyl]-2-thienylglycine], the IC50 in test [1] was below 1 µM. For `O=C(NC(C(=O)O)c1ccccc1F)C(CS)Cc1ccccc1` (stereo not drawn) [Example 19, N-[2'-Benzyl-3'-mercaptopropionyl]-2-fluorophenylglycine], the MIC in test [2] (setting [3]) was above 128 µg/mL. Further, the IC50 in test [1] is below 1 µM. As for `CC(C)CC(CS)C(=O)N[C@@H](C(=O)O)c1ccccc1` (stereo partly drawn) [Example 23, N-(4-Methyl-2-mercaptomethylpentanoyl]-D-phenylglycine], the MIC in test [2] (setting [3]) is above 128 µg/mL. Moreover, in test [1], the IC50 was below 1 µM. For `CC(CS)C(=O)N[C@@H](C(=O)O)c1ccccc1` (stereo partly drawn) [Example 22, N-[2'-Methyl-3'-mercaptopropionyl]-D-phenylglycine], in that order: above 128 µg/mL and below 1 µM. As to `O=C(N[C@@H](C(=O)O)c1ccccc1)C(CS)C1CCc2ccccc21` (stereo partly drawn) [Example 41, N-[2'-(Indan-1-yl)-3'-mercaptopropanoyl]-D-phenylglycine], in test [1], the IC50 is below 1 µM. Regarding `COc1ccc(C(NC(=O)C(CS)Cc2ccccc2)C(=O)O)cc1` (stereo not drawn) [Example 13, N-[2'-Benzyl-3'-mercaptopropionyl]4-methoxyphenylglycine], in test [2] (setting [3]), the MIC was above 128 µg/mL. The IC50 in test [1] is below 1 µM.

Take `O=C(N[C@@H](C(=O)O)c1ccccc1)C(Cc1ccccc1)C1(S)CC1` (stereo partly drawn) [Example 52, N-[2'-Benzyl-2'-(1"-mercaptocyclopropyl)acetyl]-D-phenylglycine]: in test [2] (setting [3]), the MIC was above 128 µg/mL. Still for that read-out and setting: in the case of `CC(S)C(Cc1ccccc1)C(=O)N[C@@H](C(=O)O)c1ccccc1` (single isomer, unassigned) [Example 50 (all isomers), N-[2'-Benzyl-3'-mercaptobutanoyl]-D-phenylglycine] it was above 128 µg/mL. In the case of `CC(C)CC(C(=O)N[C@@H](C(=O)O)c1ccccc1)C(C)S` (stereo partly drawn) [Example 27, N-[2'-Isobutyl-3'-mercaptobutanoyl]-D phenylglycine], the MIC in test [2] (setting [3]) was above 128 µg/mL. In addition, the IC50 in test [1] was below 1 µM. Consider `O=C(N[C@@H](C(=O)O)c1ccc(F)cc1)C(CS)Cc1ccccc1` (stereo partly drawn) [Example 16, N-[2'-Benzyl-3'-mercaptopropionyl]-4-fluoro-D-phenylglycine], for which the IC50 in test [1] is below 1 µM. On to `O=C(N[C@@H](C(=O)O)c1ccccc1)[C@@H](CS)CCCc1ccccc1` [38f), N-[(S)-2'-Mercaptomethyl-5'-phenylpentanoyl]-D-phenylglycine], for which the MIC in test [2] (setting [3]) is above 128 µg/mL. For the same compound, in test [1], the IC50 is below 1 µM.

For `O=C(NC(C(=O)O)c1ccccc1)C(CS)Cc1ccccc1` (stereo not drawn) [Example 9e), N-[2'-Benzyl-3'-mercaptopropionyl]phenylglycine], the IC50 in test [1] was below 1 µM. For `CCC(S)C(Cc1ccccc1)C(=O)N[C@@H](C(=O)O)c1ccccc1` (stereo partly drawn) [Example 49, N-[2-Benzyl-3-mercaptopentanoyl]-D-phenylglycine], the MIC in test [2] (setting [3]) is above 128 µg/mL. As to `Cn1cc(C(NC(=O)C(CS)Cc2ccccc2)C(=O)O)cn1` (stereo not drawn) [Example 25, N-[2'-Benzyl-3'-mercaptopropionyl]4-[1-methylisoiinidazolyl]glycine], the IC50 in test [1] was below 1 µM. Same read-out and setting: in the case of `O=C(N[C@@H](C(=O)O)c1ccccc1)[C@@H](CS)CCCCCc1ccccc1` [40f), N-[(S)-2'-Mercaptomethyl-7'-phenylheptanoyl]-D-phenylglycine] it was below 1 µM; in that of `O=C(NC(C(=O)O)c1ccco1)C(CS)Cc1ccccc1` (stereo not drawn) [Example 30, N-[2'-Benzyl-3'-mercaptopropionyl]-2-(2"-furanyl)glycine], below 1 µM. For the compound `Cc1ccc(C(NC(=O)C(CS)Cc2ccccc2)C(=O)O)cc1` (stereo not drawn) [Example 24, N-[2'-Benzyl-3'-mercaptopropionyl]-4-methylphenylglycine], in test [2] (setting [3]), the MIC was above 128 µg/mL. Further, in test [1], the IC50 is below 1 µM.

As to `O=C(NC(C(=O)O)c1cccc(F)c1)C(CS)Cc1ccccc1` (stereo not drawn) [Example 17, N-[2'-Benzyl-3'-mercaptopropionyl]-3-fluorophenylglycine], the IC50 in test [1] is below 1 µM. The same measure, in the same setting: then `O=C(N[C@@H](Cc1c[nH]c2ccccc12)C(=O)O)C(CS)Cc1ccccc1` (stereo partly drawn) [5d), N-[2'-Benzyl-3'-mercaptopropionyl]tryptophan], with below 1 µM; and `O=C(N[C@@H](C(=O)O)c1ccccc1)C(CS)CCOc1ccccc1` (stereo partly drawn) [Example 42, N-[2'-Mercaptomethyl-4'-phenoxybutanoyl]-D-phenylglycine], with below 1 µM.

Source of the values: patent US6048852A, “β-thiopropionyl-aminoacid derivatives and their use as β-lactamase inhibitors” (SmithKline Beecham p.l.c., priority 1996, dated 2000).
